Measured values as given in ChEMBL document CHEMBL1821562, “Amine-constrained pyridazinone histamine H₃ receptor antagonists” (Bioorg Med Chem Lett, 2011).
pIC50, pKi: −log10 of the molar value.

Legend:
Histamine H3 receptor [1] = target: Histamine H3 receptor (Homo sapiens, UniProt Q9Y5N1); assay: Displacement of [3H]-NAMH from human histamine H3 receptor
Histamine H3 receptor [2] = target: Histamine H3 receptor (Rattus norvegicus, UniProt Q9QYN8); assay: Displacement of [3H]-NAMH from rat histamine H3 receptor
[3] = Oral bioavailability in rat at 5 mg/kg; assay type: ADME, organism-based; details: in vivo
[4] = Clearance in rat at 1 mg/kg, iv; assay type: ADME, organism-based; parameters: dose 1 mg/kg, route intravenous; details: in vivo
[5] = Drug uptake in rat brain at 10 mg/kg, ip after 1 hr; assay type: ADME, organism-based; parameters: dose 10 mg/kg, route intraperitoneal; details: read-out: Drug uptake
[6] = Volume of distribution in rat at 1 mg/kg, iv; assay type: ADME, organism-based; parameters: dose 1 mg/kg, route intravenous; details: in vivo
[7] = Metabolic stability in rat liver microsomes assessed as half life; assay type: ADME, Microsome
[8] = Metabolic stability in mouse liver microsomes assessed as half life; assay type: ADME, Microsome
[9] = Metabolic stability in dog liver microsomes assessed as half life; assay type: ADME, Canis lupus familiaris, Microsome
[10] = Half life in rat at 1 mg/kg, iv; assay type: ADME, organism-based; parameters: dose 1 mg/kg, route intravenous; details: in vivo
Rattus norvegicus [11] = assay: AUC (0 to 6 hrs) in rat at 5 mg/kg, po; assay type: ADME, organism-based, Plasma; parameters: time < 6 hr, dose 5 mg/kg, route oral; details: in vivo
[12] = Cmax in rat at 5 mg/kg, po; assay type: ADME, organism-based; parameters: dose 5 mg/kg, route oral; details: in vivo
[13] = Ratio of drug level in brain to plasma in rat at 10 mg/kg, ip; assay type: ADME, organism-based; parameters: dose 10 mg/kg, route intraperitoneal; details: brain and plasma, read-out: BPR
[14] = Metabolic stability in human liver microsomes assessed as half life; assay type: ADME, Microsome
[15] = Tmax in rat at 5 mg/kg, po; assay type: ADME, organism-based; parameters: dose 5 mg/kg, route oral; details: in vivo
Rattus norvegicus [16] = assay: AUC (0 to 6 hrs) in po dosed rat; assay type: ADME, organism-based, Plasma; parameters: time < 6 hr, route oral; details: in vivo
[17] = Cmax in po dosed rat; assay type: ADME, organism-based; parameters: route oral; details: in vivo
[18] = Drug uptake in ip dosed rat brain after 1 hr; assay type: ADME, organism-based; details: read-out: Drug uptake
[19] = Ratio of drug level in brain to plasma in ip dosed rat; assay type: ADME, organism-based; details: brain and plasma, read-out: BPR
[20] = Oral bioavailability in rat; assay type: ADME, organism-based; details: in vivo
Cytochrome P450 3A4 = Cytochrome P450 3A4 (Homo sapiens, UniProt P08684); assay: Inhibition of CYP3A4; assay type: ADME
Cytochrome P450 1A2 = target: T1, Cytochrome P450 1A2 (Homo sapiens, UniProt P05177); assay: Inhibition of CYP1A2; assay type: ADME
T1 sequence (P05177 whole entry): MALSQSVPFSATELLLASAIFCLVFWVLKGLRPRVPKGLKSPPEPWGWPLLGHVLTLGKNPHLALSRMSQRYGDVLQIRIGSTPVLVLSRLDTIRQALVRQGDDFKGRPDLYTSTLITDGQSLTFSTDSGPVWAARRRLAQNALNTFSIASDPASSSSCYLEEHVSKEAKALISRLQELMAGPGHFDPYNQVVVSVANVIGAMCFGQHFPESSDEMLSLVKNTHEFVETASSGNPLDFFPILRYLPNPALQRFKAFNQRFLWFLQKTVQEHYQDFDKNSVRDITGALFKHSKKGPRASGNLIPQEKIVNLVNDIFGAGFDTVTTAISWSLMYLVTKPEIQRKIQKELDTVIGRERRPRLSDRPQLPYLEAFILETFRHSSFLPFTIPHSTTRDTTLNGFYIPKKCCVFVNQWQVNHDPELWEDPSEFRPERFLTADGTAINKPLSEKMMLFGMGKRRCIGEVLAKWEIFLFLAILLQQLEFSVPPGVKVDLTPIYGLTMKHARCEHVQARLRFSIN

Cytochrome P450 2C9 = Cytochrome P450 2C9 (Homo sapiens, UniProt P11712); assay: Inhibition of CYP2C9; assay type: ADME
Cytochrome P450 2D6 = Cytochrome P450 2D6 (Homo sapiens, UniProt P10635); assay: Inhibition of CYP2D6; assay type: ADME
Cytochrome P450 2C19 = Cytochrome P450 2C19 (Homo sapiens, UniProt P33261); assay: Inhibition of CYP2C19; assay type: ADME
Chain of Cytochrome P450 2C19 (P33261 whole entry): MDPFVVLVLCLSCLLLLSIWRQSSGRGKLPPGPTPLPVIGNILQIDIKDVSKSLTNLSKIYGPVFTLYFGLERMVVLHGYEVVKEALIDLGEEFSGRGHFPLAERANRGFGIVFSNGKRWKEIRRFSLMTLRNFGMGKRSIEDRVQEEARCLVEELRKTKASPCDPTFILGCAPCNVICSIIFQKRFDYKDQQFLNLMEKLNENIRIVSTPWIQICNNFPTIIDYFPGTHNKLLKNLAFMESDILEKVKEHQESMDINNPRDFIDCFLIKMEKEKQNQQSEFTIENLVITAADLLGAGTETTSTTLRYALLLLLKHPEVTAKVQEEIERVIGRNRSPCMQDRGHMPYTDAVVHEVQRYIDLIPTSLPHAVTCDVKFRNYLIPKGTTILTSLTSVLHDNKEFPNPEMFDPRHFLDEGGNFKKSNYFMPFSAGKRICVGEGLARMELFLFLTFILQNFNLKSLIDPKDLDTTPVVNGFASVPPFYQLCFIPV

Chain of Histamine H3 receptor (Homo sapiens, UniProt Q9Y5N1) (Q9Y5N1 whole entry): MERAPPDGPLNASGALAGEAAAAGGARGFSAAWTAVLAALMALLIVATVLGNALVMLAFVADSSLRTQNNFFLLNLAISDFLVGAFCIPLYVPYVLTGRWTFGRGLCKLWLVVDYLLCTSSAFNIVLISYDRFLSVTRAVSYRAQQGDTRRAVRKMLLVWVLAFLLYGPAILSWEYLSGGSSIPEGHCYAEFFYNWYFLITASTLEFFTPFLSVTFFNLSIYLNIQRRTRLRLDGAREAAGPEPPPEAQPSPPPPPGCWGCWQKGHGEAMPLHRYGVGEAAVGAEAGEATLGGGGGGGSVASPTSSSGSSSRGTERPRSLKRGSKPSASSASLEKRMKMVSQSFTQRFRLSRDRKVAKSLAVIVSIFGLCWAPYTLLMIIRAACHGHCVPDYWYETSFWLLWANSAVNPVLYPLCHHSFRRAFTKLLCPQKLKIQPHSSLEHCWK
Chain of Histamine H3 receptor (Rattus norvegicus, UniProt Q9QYN8) (Q9QYN8 whole entry): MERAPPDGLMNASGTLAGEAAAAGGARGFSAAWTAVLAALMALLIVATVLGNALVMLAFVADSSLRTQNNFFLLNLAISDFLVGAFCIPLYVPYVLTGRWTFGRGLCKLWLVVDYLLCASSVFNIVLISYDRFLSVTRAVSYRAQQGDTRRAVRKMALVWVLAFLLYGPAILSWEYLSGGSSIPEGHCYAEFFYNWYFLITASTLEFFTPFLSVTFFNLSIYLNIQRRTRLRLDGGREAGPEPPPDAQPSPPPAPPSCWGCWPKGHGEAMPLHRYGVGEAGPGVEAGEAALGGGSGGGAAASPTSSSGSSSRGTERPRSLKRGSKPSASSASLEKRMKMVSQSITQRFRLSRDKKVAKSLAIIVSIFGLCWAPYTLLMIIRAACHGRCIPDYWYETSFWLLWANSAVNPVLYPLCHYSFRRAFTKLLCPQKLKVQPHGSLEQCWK
Chain of Cytochrome P450 2D6 (P10635 whole entry): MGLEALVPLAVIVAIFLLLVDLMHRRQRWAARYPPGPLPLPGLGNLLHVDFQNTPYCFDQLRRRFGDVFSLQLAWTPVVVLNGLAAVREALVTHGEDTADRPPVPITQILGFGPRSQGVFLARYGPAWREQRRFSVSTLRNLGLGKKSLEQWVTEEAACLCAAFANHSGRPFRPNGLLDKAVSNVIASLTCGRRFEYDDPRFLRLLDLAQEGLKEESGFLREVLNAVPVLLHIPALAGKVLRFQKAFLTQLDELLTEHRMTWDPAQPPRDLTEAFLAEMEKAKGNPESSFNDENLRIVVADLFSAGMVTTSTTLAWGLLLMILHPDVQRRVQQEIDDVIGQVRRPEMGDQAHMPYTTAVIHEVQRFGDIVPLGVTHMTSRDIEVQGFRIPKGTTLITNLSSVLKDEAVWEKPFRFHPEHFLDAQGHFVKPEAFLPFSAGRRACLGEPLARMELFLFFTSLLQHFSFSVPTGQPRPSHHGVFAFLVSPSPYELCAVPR
Chain of Cytochrome P450 3A4 (P08684 whole entry): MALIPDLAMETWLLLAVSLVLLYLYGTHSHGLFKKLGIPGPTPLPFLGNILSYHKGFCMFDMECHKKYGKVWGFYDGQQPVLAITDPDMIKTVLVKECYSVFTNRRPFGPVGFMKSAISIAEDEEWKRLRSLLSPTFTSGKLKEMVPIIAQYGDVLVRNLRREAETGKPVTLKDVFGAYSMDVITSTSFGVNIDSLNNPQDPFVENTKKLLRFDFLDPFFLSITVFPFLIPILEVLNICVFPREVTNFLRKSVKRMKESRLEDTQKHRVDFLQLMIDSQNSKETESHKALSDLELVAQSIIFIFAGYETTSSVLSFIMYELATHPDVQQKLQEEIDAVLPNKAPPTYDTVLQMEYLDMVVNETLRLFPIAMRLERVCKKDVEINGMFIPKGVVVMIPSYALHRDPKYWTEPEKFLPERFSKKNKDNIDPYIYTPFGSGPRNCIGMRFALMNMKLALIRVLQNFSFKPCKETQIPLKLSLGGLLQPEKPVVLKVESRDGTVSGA
Chain of Cytochrome P450 2C9 (P11712 whole entry): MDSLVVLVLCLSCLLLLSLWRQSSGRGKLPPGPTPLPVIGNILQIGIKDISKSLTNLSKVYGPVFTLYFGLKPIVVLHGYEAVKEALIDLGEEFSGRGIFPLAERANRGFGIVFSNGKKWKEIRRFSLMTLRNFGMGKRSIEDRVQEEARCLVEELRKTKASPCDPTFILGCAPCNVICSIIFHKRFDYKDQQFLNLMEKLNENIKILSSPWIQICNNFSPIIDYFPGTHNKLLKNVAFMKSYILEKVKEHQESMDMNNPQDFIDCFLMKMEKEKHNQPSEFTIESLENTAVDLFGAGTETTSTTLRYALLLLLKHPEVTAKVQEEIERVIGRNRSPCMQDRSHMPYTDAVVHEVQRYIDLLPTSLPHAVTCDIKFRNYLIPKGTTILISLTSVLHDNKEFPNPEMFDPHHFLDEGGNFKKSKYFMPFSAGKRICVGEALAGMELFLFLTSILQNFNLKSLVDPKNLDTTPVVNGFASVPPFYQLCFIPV

Cn1nc(-c2ccc(C(=O)N3CCN4CCC[C@H]4C3)cc2)ccc1=O
pKi (Histamine H3 receptor [1]): < 6.00
pKi (Histamine H3 receptor [2]): < 6.00

CC(C)N1CCN(c2ccc(-c3ccc(=O)n(C)n3)cc2)CC1
pKi (Histamine H3 receptor [1]): 6.96
pKi (Histamine H3 receptor [2]): 6.38

CN1CCCN(c2ccc(-c3ccc(=O)n(C)n3)cc2)CC1
pKi (Histamine H3 receptor [1]): < 6.30
pKi (Histamine H3 receptor [2]): < 6.00

Cn1nc(-c2ccc(N3CCN(C4CCCC4)CC3)cc2)ccc1=O
pKi (Histamine H3 receptor [1]): 7.03
pKi (Histamine H3 receptor [2]): 6.59

Cn1nc(-c2ccc(C(=O)N3CCN(C4CCCC4)CC3)cc2)ccc1=O
pKi (Histamine H3 receptor [1]): 6.87
pKi (Histamine H3 receptor [2]): 6.73

CC(C)N1CCN(C(=O)c2ccc(-c3ccc(=O)n(C)n3)cc2)CC1
pKi (Histamine H3 receptor [1]): 6.78
pKi (Histamine H3 receptor [2]): 6.73

Cn1nc(-c2ccc(N3CCN4CCC[C@H]4C3)cc2)ccc1=O
pKi (Histamine H3 receptor [1]): 6.51
pKi (Histamine H3 receptor [2]): < 6.00

O=C(c1ccc(-c2ccc(=O)n(-c3ccc(F)cc3)n2)cc1)N1CCC[C@H]1CN1CCCC1
bioavailability [3]: 13%
clearance [4]: 12 mL/min/kg
concentration at 1 h [5]: 529 ng/g
Vd [6]: 1.1 L/kg
half-life [7]: > 40 min
half-life [8]: > 40 min
half-life [9]: > 40 min
half-life [10]: 60 min
AUC (Rattus norvegicus [11]): 1020 ng·h/mL
Cmax [12]: 180 ng/mL
Kp [13]: 0.7
half-life [14]: > 40 min
pKi (Histamine H3 receptor [1]): 7.80
pKi (Histamine H3 receptor [2]): 7.04

C[C@@H]1CCCN1CCCOc1ccc(-c2ccc(=O)n(C)n2)cc1
bioavailability [3]: 28%
concentration at 1 h [5]: 3440 ng/g
Vd [6]: 6.5 L/kg
half-life [7]: > 40 min
half-life [8]: > 40 min
half-life [9]: > 40 min
Tmax [15]: 60 min
AUC (Rattus norvegicus [11]): 538 ng·h/mL
Cmax [12]: 123 ng/mL
Kp [13]: 3.9
half-life [14]: > 40 min
pKi (Histamine H3 receptor [1]): 9.00
pKi (Histamine H3 receptor [2]): 8.22

Cn1nc(-c2ccc(OC3CCN(C4CCCC4)CC3)cc2)ccc1=O
pKi (Histamine H3 receptor [1]): 8.52
pKi (Histamine H3 receptor [2]): 8.22

O=C(c1ccc(-c2ccc(=O)[nH]n2)cc1)N1CCC[C@H]1CN1CCCC1
pKi (Histamine H3 receptor [1]): 7.77
pKi (Histamine H3 receptor [2]): 7.34

CNC(=O)c1ccc(Oc2ccc3c(c2)CCN(C2CCC2)CC3)nc1 [GSK189254]
AUC (Rattus norvegicus [16]): 2600 ng·h/mL
Cmax [17]: 435 ng/mL
concentration at 1 h [18]: 1660 ng/g
Kp [19]: 1.4
bioavailability [20]: 51%

Cn1nc(-c2ccc(OC3CCN(C4CCC4)CC3)cc2)ccc1=O
half-life [8]: 35 min
pKi (Histamine H3 receptor [1]): 8.52
pKi (Histamine H3 receptor [2]): 8.52

Cn1nc(-c2ccc(C(=O)N3CCC[C@H]3CN3CCCC3)cc2)ccc1=O
bioavailability [3]: 45%
clearance [4]: 18 mL/min/kg
concentration at 1 h [5]: 454 ng/g
Vd [6]: 2.5 L/kg
pIC50 (Cytochrome P450 3A4): < 4.52
half-life [7]: > 40 min
half-life [8]: > 40 min
half-life [9]: > 40 min
pIC50 (Cytochrome P450 1A2): < 4.52
pIC50 (Cytochrome P450 2C9): < 4.52
pIC50 (Cytochrome P450 2D6): < 4.52
half-life [10]: 96 min
AUC (Rattus norvegicus [11]): 2180 ng·h/mL
Cmax [12]: 412 ng/mL
Kp [13]: 0.37
half-life [14]: > 40 min
pKi (Histamine H3 receptor [1]): 8.00
pKi (Histamine H3 receptor [2]): 7.08
pIC50 (Cytochrome P450 2C19): < 4.52
